According to BindingDB's records for doi:10.7270/Q2X34VZF (Burnham Center For Chemical Genomics, 2011):

Target: Phospholipase A2 (Homo sapiens, UniProt P04054)
Assay: phospholipase A2 activity inhibition – biochemical, set 2, counter-screen for ATG4B inhibitor project, dose response (AID 588586)

Phospholipase A2, sequence (P04054 whole entry): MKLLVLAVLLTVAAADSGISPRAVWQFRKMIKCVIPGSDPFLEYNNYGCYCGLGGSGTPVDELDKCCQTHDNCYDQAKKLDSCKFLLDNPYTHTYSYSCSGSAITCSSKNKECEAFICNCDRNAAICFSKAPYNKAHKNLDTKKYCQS

Row | Structure (SMILES) | IC50
1 | CC1=CC(/C=N/n2c(COc3ccccc3)nc3ccccc3c2=O)C(=O)C([N+](=O)[O-])=C1 (stereo not drawn) [3-[[(E)-(3-methyl-5-nitro-6-oxocyclohexa-2,4-dien-1-ylidene)methyl]amino]-2-(phenoxymethyl)quinazolin-4-one] | 10.5 µM
2 | Cc1ccc(NC2=NC(=O)C(=Cc3c(C)[nH]c4ccccc34)S2)cc1 [5-[(2-methyl-1H-indol-3-yl)methylene]-2-[(4-methylphenyl)imino]-1,3-thiazolidin-4-one] | 22.3 µM
3 | Oc1ccc2ccccc2c1CN=Nc1nnc(-c2ncc[nH]2)c2ccccc12 [SMR000151639] | 2.47 µM
